Patent US20090286884A1, “Hops Beta-Acid Anti-Diabetic Composition” (priority 2004, published 2009)

Test system: normal human muscle myoblasts (HSMM)
Test: 3H-deoxyglucose uptake into skeletal muscle cells
Assay type: cell-based
Settings: after 24 hrs incubation in the presence of various hops extracts
Description: All skeletal muscle cell strains used are skeletal muscle myoblast cells (purchased from Clonetics) with negative for HIV-I, hepatitis-B & C, mycoplasma, bacteria, yeast and fungi. This Skeletal Muscle Myoblast Cell System contains normal human muscle myoblasts (HSMM). The cell and media System can quickly generate HSMM cultures for the study of cellular development and differentiation, insulin uptake or resistance, or tissue repair. The Skeletal muscle cells were cultured on Cytostar 96-well cultured plate. Cells were labeled with 3H-deoxyglucose (50 μCi/ml, 4 μM) in the presence of 8 mM glucose. Radioactivity was counted on a Microbeta scintillation counter. In beta-acid treated cells (mixture of 65:25:10 of co-Lupulone: lupulone: ad-lupulone, Beta Tec, Washington, D.C.), kinetics of labeled deoxyglucose uptake was directly measured without washing. In order to avoid color quenching of quercetin treated cells, cells were washed with Hanks buffer and then the radioactivity was measured at end-point (18 hr). Error bars show SD (n=3).

COc1cc(O)c(CC=C(C)C)c(O)c1C(=O)/C=C/c1ccc(O)cc1 [xanthohumol]
glucose uptake into muscle skeletal cells, enhancing effect: no enhancing effect
